Experimental data taken from publication PMC7319089, “Multi-Component Comparative Pharmacokinetics in Rats After Oral Administration of Fructus aurantii Extract, Naringin, Neohesperidin, and Naringin-Neohesperidin” (Frontiers in Pharmacology, 2020).

Experiments:
[1] = parameters: method as in Wang et al., 2018; conditions: after orally administering 30 g/kg FA decoction; ref Wang et al., 2018; cited from earlier work
[2] = Pharmacokinetics in SD rats after oral administration of FA extract, NA, NHE or NA-NHE (UPLC-MS/MS of plasma, DAS 3.1); assay type: in vivo, Sprague-Dawley (SD) rats; conditions: for AUC(0-t) / AUC(0-∞) / CL/F / Ka / V1/F / t1/2(Ka) / t1/2α / t1/2β: n = 6
Experimental: The 20 μl of β-glucuronidase and 15 μl of sulfatase were added into 50 μl of plasma sample. After vortexed for 30 s, the mixture was incubated at 37°C for 2 h in a water bath, then placed in ice water for 5 min to terminate the reaction ([Xu et al., 2019]). IS solution (20 µl, 5 μg/ml) and acetonitrile (1.0 ml) were added into the mixture and vortexed for 2 min. […] Rats were randomly divided into the following four groups (6 rats in each group): naringin (NA), neohesperidin (NHE), naringin-neohesperidin (NA-NHE), and FA extract group. The oral administration doses were selected according to the literatures ([Tong et al., 2012]; [Yang et al., 2012]; [Committee of National Pharmacopoeia of RP China, 2015]; [Wang et al., 2018]; [Zhang et al., 2018]; [Chen et al., 2019]), the contents of the five components in FA, and the preliminary experiments. The specific doses were as follows: […] The rats had free access to water during the experiment. The blood samples were then immediately centrifuged at 4,000 rpm for 10 min. The plasma was frozen and stored at −80°C until analysis. The plasma concentration of the studied compounds was determined according to the daily calibration curve.

[3] = SD rats, oral compatibility NA-NHE (naringin 1.85 g/kg and neohesperidin 1.81 g/kg), two-compartment parameters
[4] = SD rats, oral monomer (naringin 1.85 g/kg or neohesperidin 1.81 g/kg), two-compartment parameters
[5] = male SD rats, oral FA extract 10.8 g/kg of the original medicinal material, two-compartment model parameters

AUC(0-t) [2, 3]: 3475.14 ± 714.19 ng·h/mL
AUC(0-∞) [2, 3]: 3557.64 ± 726.84 ng·h/mL
CL/F [2, 3]: 60.5 ± 13.3 mL/min/kg
Ka [2, 3]: 4.40 ± 0.83 h⁻¹
V1/F [2, 3]: 4.37 ± 1.16 L/kg
t1/2(Ka) [2, 3]: 0.57 ± 0.11 h
t1/2α [2, 3]: 3.22 ± 0.42 h
t1/2β [2, 3]: 3.43 ± 0.55 h
AUC(0-t) [2, 4]: 2932.05 ± 625.03 ng·h/mL
AUC(0-∞) [2, 4]: 2988.05 ± 621.39 ng·h/mL
CL/F [2, 4]: 91.5 ± 12.2 mL/min/kg
Ka [2, 4]: 1.64 ± 0.35 h⁻¹
V1/F [2, 4]: 4.58 ± 1.18 L/kg
t1/2(Ka) [2, 4]: 0.96 ± 0.08 h
t1/2α [2, 4]: 4.39 ± 0.47 h
t1/2β [2, 4]: 4.61 ± 0.48 h
AUC(0-t) [2, 5]: 4345.39 ± 704.69 ng·h/mL
AUC(0-∞) [2, 5]: 4421.59 ± 723.98 ng·h/mL
CL/F [2, 5]: 68.2 ± 18.3 mL/min/kg
Ka [2, 5]: 3.17 ± 0.93 h⁻¹
V1/F [2, 5]: 7.17 ± 1.40 L/kg
t1/2(Ka) [2, 5]: 0.26 ± 0.07 h
t1/2α [2, 5]: 3.47 ± 0.51 h
t1/2β [2, 5]: 3.86 ± 0.32 h
Shape of the plasma concentration-time profile ([2]; rats, oral administration, naringin and neohesperidin determined as naringenin and hesperetin): Double-peak phenomenon
SMILES: COc1ccc([C@@H]2CC(=O)c3c(O)cc(O[C@@H]4O[C@H](CO)[C@@H](O)[C@H](O)[C@H]4O[C@@H]4O[C@@H](C)[C@H](O)[C@@H](O)[C@H]4O)cc3O2)cc1O [NHE, neohesperidin]
Detection in rat plasma [1]: could not been detected
